Patent US7009045B2 (priority 2000, dated 2006)

Assays:
Format in all cases: cell-based
[1] = test system: Candida famata wild type and regulatory mutants able to overproduce riboflavin on iron-rich medium; experiment: Sensitivity after electroporation to 3CdSO4.8H20, Burkholder medium with 0.3 M sucrose (Table 20); set-up: key: +++: strong growth; ++: weak growth; +: very weak growth; —: absence of growth
Procedure: (§1) Next, the toxicity of CdSO4 (0–25 μM) to regulatory mutants 2-5 and 4-48 and the C. famata wild strain was studied in the medium with sucrose (Table 20).
(§2) It was shown that all three strains appeared to be very sensitive to Cd^+2 ions without any differences between regulatory mutants and the wild-type strain.

[2] = test system: Candida famata wild type and regulatory mutants able to overproduce riboflavin on iron-rich medium; experiment: as above; set-up: key: +++: strong growth; ++: weak growth; —: absence of growth
Procedure: as §1, §2

[3] = test system: Candida famata regulatory mutants unable to overproduce riboflavin; experiment: Sensitivity to monofluoroacetate, Burkholder medium with 0.5% glycerol (Table 7); settings: MFA 0.2–0.4%
Text: (§3) In further experiments, the influence of the aconitase inhibitor, 2-monofluoroacetate (MFA), on the growth of C.famata regulatory mutants unable to overproduce riboflavin was studied in media with glucose (0.5%) or glycerol (0.5%) as the carbon sources.

[4] = test system: Candida famata regulatory mutants unable to overproduce riboflavin; experiment: Sensitivity to monofluoroacetate, Burkholder medium with 0.5% glucose (Table 8)
Text: as §3

Row | SMILES | growth ([1]; #2-5, 15 μM) | growth ([1]; #2-5, 20 μM) | growth ([1]; #4-48, 15 μM) | growth ([1]; #4-48, 20 μM) | growth ([1]; VKM Y-9, 15 μM) | growth ([1]; VKM Y-9, 20 μM) | growth ([2]; #2-5, 5 μM) | growth ([2]; #2-5, 10 μM) | growth ([2]; #2-5, 25 μM) | growth ([2]; #4-48, 5 μM) | growth ([2]; #4-48, 10 μM) | growth ([2]; #4-48, 25 μM) | growth ([2]; VKM Y-9, 5 μM) | growth ([2]; VKM Y-9, 10 μM) | growth ([2]; VKM Y-9, 25 μM) | effect on growth of wild type VKM Y-9 and leu2 auxotroph L20105 [3] | effect on growth of most regulatory mutants [4]
1 | O.O.O.O.O.O.O.O.O=S(=O)([O-])[O-].O=S(=O)([O-])[O-].O=S(=O)([O-])[O-].[Cd+2].[Cd+2].[Cd+2] [CdSO4×8H2O] | + | + | + | + | + | + | ++ | ++ | — | ++ | ++ | — | +++ | ++ | — |  | 
2 | O=C(O)CF [MFA, 2-monofluoroacetate] |  |  |  |  |  |  |  |  |  |  |  |  |  |  |  | not inhibited at all | did not inhibit growth
